Consider 5 molecules from article PMC10111423, “Antimalarial Imidazopyridines Incorporating an Intramolecular Hydrogen Bonding Motif: Medicinal Chemistry and Mechanistic Studies” (ACS Infectious Diseases, 2023).

Data set [1] deals with multidrug-resistant (K1) strain of P. falciparum. Briefly: In vitro asexual blood-stage antiplasmodium pLDH assay, K1 strain. In kind it is cell-based. Conditions: Plasmodium falciparum, 72 h, n ≥ 3, read-out: In vitro antiplasmodium activity IC50 PfK1 strain. Here is the method: Compounds were screened against multi-drug-resistant (K1) and sensitive (NF54) strains of P. falciparum in vitro using a parasite lactate dehydrogenase assay (pLDH) (the method is described fully in the Supporting Information). […]
In vitro Asexual Blood Stage Antiplasmodium Assay
Parasites were cultured as per the method of Trager and Jensen,1 with modifications. IC50 values were determined using parasite lactate dehydrogenase as a marker for survival (Makler […]
et al, 1993). The test samples were prepared to a 10 mmol/L stock solution in 100% DMSO.
Samples were tested as a suspension if not completely dissolved. Further dilutions to the desired starting concentration were freshly prepared in growth media on each occasion of the experiment. The standard antimalarial drugs chloroquine (CQ) and artesunate (Arts) were used as the reference drug in all experiments. A full dose-response was performed for all compounds in a 96-well plate to determine the concentration inhibiting 50% of parasite growth (IC50– value). Test samples were tested at a starting concentration of 6mmol/L, which was then serially diluted 2-fold in growth medium to generate the tested concentration range. The same dilution technique was used for all samples. CQ and Arts were tested from a starting concentration of 1µg/mL. The highest concentration of solvent to which the parasites were exposed was <0.1% and has no measurable effect on the parasite viability (data not shown).
The assay plate was incubated at 37 °C for 72h in a sealed gas chamber under 3% O2 and 4% CO2 with the balance being N2. After 72h, the wells in the assay plate were gently resuspended, and 15µL from each well was transferred to a duplicate plate containing 100µL of Malstat reagent and 25µL of nitroblue tetrazolium solution in each well. Plates were left to develop for 20 minutes in the dark and then absorbance of each well was quantified using a spectrophotometer at 620nm wavelength.
The remaining population of parasites at each concentration of the test compound was determined by comparing the absorbance of each well to the absorbance of a well containing […]
the drug-free control. […]
The initial 100 µg/mL solution is serially diluted 10-

Data set [2] is described as follows: In vitro microsomal stability, mouse liver microsomes. The class given is in vitro ADME. Conditions: 1 μM, 0.4 mg/mL protein. Here is the method: Xenotech, Kansas, USA), suspended in 0.1 M phosphate buffer (pH 7.4). (Details of this assay are described in the Supporting Information.) page 20: fold to attain six assay concentrations of 100-0.001 μg/mL. […] was used as the reference compound in this assay. The highest concentration of DMSO, which was used as the negative control, had no measurable effect on cell viability. After 44 hours of exposure of the cells to the test compounds, a solution of MTT was added. This was followed by an additional 4 hours of incubation at 37 °C. The assay plates were centrifuged, medium removed, and DMSO was added to the crystals. The amount of formazan was ascertained by measuring the absorbance at 540 nm. GraphPad Prism software was then used to generate IC50 values through a non-linear dose-response curve analysis. β-Hematin Inhibition Assay 20 mM stock solutions of controls and test compounds were made in DMSO. A solution […] was added to every well in columns 1-11 of a 96-well plate. 140 μL of water and 40 μL of 305.5 μM NP-40 were added to column 12 to mediate the formation of beta-hematin. 20 μL of test compounds (20 mM) were added to column 12 and 100 μL of this solution serially diluted to column 2, leaving column 1 blank (0 μM of test compound). 178.8 μL aliquot of hematin stock was suspended in 20 ml of a 1 M acetate buffer at pH 4.9. 100 μL of this hematin suspension was then added into each well, and the plates were incubated for ±5 hrs at 37°C. Subsequently, 32 μL of pyridine solution (20% water, 20% acetone, 10% 2M HEPES buffer at pH 7.4 and 50% pyridine) and 60 μL of acetone were added to all wells. The absorbances of plate wells were recorded at 405 nm on a SpectraMax plate reader. Sigmoidal dose-response curves with variable slopes were fitted to the absorbance data using GraphPad Prism to obtain the IC50 values for each compound. In vitro Microsomal Stability Assay The in vitro microsomal stability assay was performed in duplicate in a 96-well micro titre […] individually in human (pool of 50, mixed gender), rat (pool of 711, male Sprague Dawley) and mouse (pool of 1634, male CD1) liver microsomes (final protein concentration of 0.4 mg/mL; Xenotech, Kansas, USA), suspended in 0.1M phosphate buffer (pH 7.4). Incubations were S20 page 21: started by addition of NADPH (1 mM) as cofactor and shaken for 30 minutes at 37 °C. The reactions were then quenched by adding 300 μL of ice-cold acetonitrile containing internal standard (carbamazepine, 0.0236 μg/mL) and centrifuged. The supernatant was transferred to a fresh 96-well plate and analysed by LC-MS/MS (Agilent Rapid Resolution HPLC, AB SCIEX 4500 MS). The relative loss of parent compound over time was monitored and plots (concentration vs. time) were prepared per compound to determine the first order rate constant for compound depletion. This was in turn used to calculate half-life, in vitro intrinsic clearance and in vivo hepatic extraction ratio.6 Metabolite Identification Studies […] microsomes (MLM, male mouse CD1, Lot No. 1510043, Xenotech), magnesium chloride (5 mM) and NADPH (1 mM) in sodium phosphate buffer (100 mM, pH 7.4) for 60 minutes while shaking. The samples were then prepared by ice-cold acetonitrile precipitation, centrifuged, and filtered for LC-MS/MS analysis. […] Fluorescence Live-cell Microscopy […] […]
(In general: Liver microsomes are a subcellular fraction often used to study metabolism.)

pIC50: −log10 of the molar value.

As usually defined, the pIC50 is the negative decadic logarithm of the IC50, by convention in mol/L. As to `CCN(CCNc1cc2[nH]c(C3CCCC3)nc2cn1)Cc1ccc(Cl)cc1O` [Compound 1, 5-Chloro-2-(((2-((2-cyclopentyl-1H-imidazo[4,5-c]pyridin-6-yl)amino)ethyl)(ethyl)amino)methyl)phenol], in data set [1], the negative-log IC50 (pIC50) is 5.87. Also, the “Microsomal EH (hepatic extraction ratio), mouse” value in data set [2] came to 0.88.

On to `CCN(CCNc1cc2[nH]c(C3CC3)nc2cn1)Cc1ccc(Cl)cc1O` [Compound 5, 5-Chloro-2-(((2-((2-cyclopropyl-1H-imidazo[4,5-c]pyridin-6-yl)amino)ethyl)(ethyl)amino)methyl)phenol], for which, in data set [1], the pIC50 was 6.32. Also, the “Microsomal EH (hepatic extraction ratio), mouse” value in data set [2] was 0.81.

For the molecule `CCN(CCNc1cc2[nH]c(C3(C)CC3)nc2cn1)Cc1ccc(Cl)cc1O` [Compound 6, 5-Chloro-2-((ethyl(2-((2-(1-methylcyclopropyl)-1H-imidazo[4,5-c]pyridin-6-yl)amino)ethyl)amino)methyl)phenol], the pIC50 in data set [1] is 5.22. In addition, the “Microsomal EH (hepatic extraction ratio), mouse” value in data set [2] is reported as 0.90.

For the molecule `CCN(CCNc1cc2[nH]c(-c3cccc(C(F)(F)F)c3)nc2cn1)Cc1ccc(Cl)cc1O` [Compound 14, 5-Chloro-2-((ethyl(2-((2-(3-(trifluoromethyl)phenyl)-1H-imidazo[4,5-c]pyridin-6-yl)amino)ethyl)amino)methyl)phenol], the negative logarithm of the IC50 (pIC50) in data set [1] is 7.00. Also, in data set [2], the “Microsomal EH (hepatic extraction ratio), mouse” value is 0.81.

As to `CCN(CCNc1cc2[nH]c(-c3ccc(C(F)(F)F)nc3)nc2cn1)Cc1ccc(Cl)cc1O` [Compound 19, 5-Chloro-2-((ethyl(2-((2-(6-(trifluoromethyl)pyridin-3-yl)-1H-imidazo[4,5-c]pyridin-6-yl)amino)ethyl)amino)methyl)phenol], in data set [1], the pIC50 was 6.44. Also, the “Microsomal EH (hepatic extraction ratio), mouse” value in data set [2] amounted to 0.84.
